Measurements: patent EP4556465A1, “NOVEL BICYCLIC PD-L1 INHIBITORS, PREPARATION METHODS THEREFOR AND MEDICINAL USES THEREOF” (priority 2022, dated 2024)

What was measured:
hPD-1/hPD-L1 = biological target: T1, hPD-1/hPD-L1 (Homo sapiens, UniProt Q9NZQ7); test: PD-1/PD-L1 binding assay kit (CISBIO), HTRF assay of PD-1/PD-L1 protein-protein interaction; settings: for inhibitory activity of PD-1/PD-L1 protein-protein interaction compared with BMS-202: HTRF, comparison with BMS-202
T1 construct: purchased CISBIO
T1 sequence (Q9NZQ7 19-238 limits assumed): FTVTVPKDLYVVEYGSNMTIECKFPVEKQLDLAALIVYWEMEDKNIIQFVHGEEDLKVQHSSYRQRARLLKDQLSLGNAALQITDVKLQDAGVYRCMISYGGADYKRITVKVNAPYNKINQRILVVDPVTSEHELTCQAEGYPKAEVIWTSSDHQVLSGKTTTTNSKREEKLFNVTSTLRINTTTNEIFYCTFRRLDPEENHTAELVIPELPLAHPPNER
Method: Experimental objective: the activity of the compounds of formula (I) to inhibit the PD-1/PD-L1 interaction was tested by using a PD-1/PD-L1 binding assay kit (CISBIO).
Experimental principle: HTRF (Homogeneous Time-Resolved Fluorescence) is a technique used to detect substances to be tested in pure liquid phase systems. It primarily utilizes energy transfer of two fluorescent groups, which are divided into an energy donor europium (Eu^+) and an energy acceptor. When the donor is externally excited (e.g., a flash lamp or laser), the energy can be resonantly transferred to the acceptor if the donor is close enough to the acceptor, and the acceptor is excited at a specific wavelength. By using the HTRF technology, the assay enables simple and rapid characterization of compounds and antibody blockers in a high-throughput format. By using anti-Tag1 labeled with Eu^+ (Europium) (the HTRF energy donor) and anti-Tag2 labeled with XL665 (the HTRF energy acceptor), the interaction between PD-L1 and PD-1 can be detected. PD-L1 protein and PD-1 protein are labeled with Tag1 and Tag2, respectively, and Eu^+ and XL665 bind to PD-L1 and PD-1, respectively, through antibodies to form complexes. […] This specific signal is directly proportional to the degree of PD1/PD-L1 interaction.
Experimental materials: kit: PD-1/PD-L1 binding assay kits purchased from CISBIO; and 96-well plate: purchased from CISBIO.
Test instrument: Perkin Elmer, model: EnVision.
Test compounds: the compounds in formula (I).
Experimental procedure: PD-1/PD-L1 binding assay kits were used. […] The plates were sealed by using microplate sealers, centrifuging was performed at 1000 rpm for 1 min, and incubation was performed at room temperature for 15 min. The Anti-Tag-Eu^3+ and Anti-tag-XL665 which were diluted with Buffer were then mixed in equal volumes, then 10 µL of the mixed solution was added to each well, the sealed plates were centrifuged at 1000 rpm for 1 min, and incubation was performed at room temperature for 2 h. […] IC50 of the compounds was calculated by using Graphpad.

[1] = Acute toxicity test, single oral gavage; type: in vivo; settings: both sexes, rat, in vivo, po, SD rats, read-out: maximum tolerated dose (MTD)
Method: • Animal species and number: SD rats; 6 rats in each group (half male and half female); Mode of administration: oral gavage; […]; • Administration frequency: administration once.
Side-cage observation on the day of administration (D1): frequency and time of observation: side-cage observation of acute toxicity reactions was performed for 4 h after administration of animals in each group, and detailed clinical observations were performed on animals with apparent abnormal manifestations. Mortality, morbidity, respiration, secretion, feces, and diet, water drinking, etc. were observed, and changes in body weight of rats during administration were recorded. Detailed clinical observations include, but are not limited to, behavioral activities, skin, hair, eyes, ears, noses, abdomens, external genitalia, anuses, limbs, feet, and breathing. The animals in each group were euthanized at the end of the observation period, and all animals were dissected and gross observed.

Cc1ccccc1-c1cccc(COc2ccc3c(n2)CCN(CCO)C3)c1Cl [I-D-19, 2-(2-((2-chloro-2'-methyl-[1,1'-biphenyl]-3-yl)methoxy)-7,8-dihydro-1,6-naphthyridin-6(5H)-yl)ethan-1-ol]
IC50 (hPD-1/hPD-L1): 20.1 nM
inhibitory activity of PD-1/PD-L1 protein-protein interaction compared with BMS-202 (hPD-1/hPD-L1): superior to that of the compound BMS-202

OCCN1CCc2nc(OCc3cccc(-c4ccccc4)c3Cl)ccc2C1 [I-D-21, 2-(2-((2-chloro-[1,1'-biphenyl]-3-yl)methoxy)-7,8-dihydro-1,6-naphthyridin-6(5H)-yl)ethan-1-ol]
IC50 (hPD-1/hPD-L1): 31.1 nM
inhibitory activity of PD-1/PD-L1 protein-protein interaction compared with BMS-202 (hPD-1/hPD-L1): superior to that of the compound BMS-202

O=C(O)CN1CCc2nc(OCc3cccc(-c4ccccc4F)c3)ccc2C1 [I-D-30, 2-(2-((2'-fluoro-[1,1'-biphenyl]-3-yl)methoxy)-7,8-dihydro-1,6-naphthyridin-6(5H)-yl)acetic acid]
IC50 (hPD-1/hPD-L1): 13.4 nM
inhibitory activity of PD-1/PD-L1 protein-protein interaction compared with BMS-202 (hPD-1/hPD-L1): superior to that of the compound BMS-202

Cc1c(-c2ccc3c(c2)CN(CC(=O)O)C3=O)cccc1-c1ccccc1F [I-A-4, 2-(5-(2'-Fluoro-2-methyl-[1,1'-biphenyl]-3-yl)-1-oxoisoindolin-2-yl)acetic acid]
IC50 (hPD-1/hPD-L1): > 1000 nM

Cc1c(-c2ccc3c(c2)CN(CCO)C3)cccc1-c1ccccc1F [I-A-9, 2-(5-(2'-Fluoro-2-methyl-[1,1'-biphenyl]-3-yl)isoindolin-2-yl)ethan-1-ol]
IC50 (hPD-1/hPD-L1): 11 nM
inhibitory activity of PD-1/PD-L1 protein-protein interaction compared with BMS-202 (hPD-1/hPD-L1): superior to that of the compound BMS-202

Cc1c(-c2ccc3c(c2)CN(CC(N)=O)C3=O)cccc1-c1ccccc1F [I-A-8, 2-(5-(2'-Fluoro-2-methyl-[1,1'-biphenyl]-3-yl)-1-oxoisoindolin-2-yl)acetamide]
IC50 (hPD-1/hPD-L1): 70 to 1000 nM

OCCN1CCc2nc(OCc3cccc(-c4ccccc4Cl)c3Cl)ccc2C1 [I-D-20, 2-(2-((2,2'-dichloro-[1,1'-biphenyl]-3-yl)methoxy)-7,8-dihydro-1,6-naphthyridin-6(5H)-yl)ethan-1-ol]
IC50 (hPD-1/hPD-L1): 70 to 1000 nM

Cc1c(-c2ccc3c(n2)CCN(CCO)C3)cccc1-c1ccccc1F [I-B-3, 2-(2-(2'-Fluoro-2-methyl-[1,1'-biphenyl]-3-yl)-7,8-dihydro-1,6-naphthyridin-6(5H)-yl)ethan-1-ol]
IC50 (hPD-1/hPD-L1): 70 to 1000 nM

Cc1ccccc1-c1cccc(COc2ccc3c(n2)CCN(CCO)C3)c1F [I-D-23, 2-(2-((2-fluoro-2'-methyl-[1,1'-biphenyl]-3-yl)methoxy)-7,8-dihydro-1,6-naphthyridin-6(5H)-yl)ethan-1-ol]
IC50 (hPD-1/hPD-L1): 70 to 1000 nM

Cc1c(-c2ccc3c(c2)CN(C(C)C(=O)O)C3=O)cccc1-c1ccccc1F (stereo not shown) [I-A-6, 2-(5-(2'-Fluoro-2-methyl-[1,1'-biphenyl]-3-yl)-1-oxoisoindolin-2-yl)propanoic acid]
IC50 (hPD-1/hPD-L1): > 1000 nM

Cc1c(COc2ccc3c(n2)CCN(CCO)C3)cccc1-c1ccccc1 [I-D-17, 2-(2-((2-methyl-[1,1'-biphenyl]-3-yl)methoxy)-7,8-dihydro-1,6-naphthyridin-6(5H)-yl)ethan-1-ol]
IC50 (hPD-1/hPD-L1): 70 to 1000 nM

Cc1c(COc2ccc3c(n2)CCN(CCO)C3)cccc1-c1ccccc1F [I-D-14, 2-(2-((2'-fluoro-2-methyl-[1,1'-biphenyl]-3-yl)methoxy)-7,8-dihydro-1,6-naphthyridin-6(5H)-yl)ethan-1-ol]
IC50 (hPD-1/hPD-L1): 15.8 nM
inhibitory activity of PD-1/PD-L1 protein-protein interaction compared with BMS-202 (hPD-1/hPD-L1): superior to that of the compound BMS-202

Cc1c(COc2ccc3c(n2)CCN(CC(=O)O)C3)cccc1-c1ccccc1F [I-D-13, 2-(2-((2'-fluoro-2-methyl-[1,1'-biphenyl]-3-yl)methoxy)-7,8-dihydro-1,6-naphthyridin-6(5H)-yl)acetic acid]
IC50 (hPD-1/hPD-L1): 23 nM
inhibitory activity of PD-1/PD-L1 protein-protein interaction compared with BMS-202 (hPD-1/hPD-L1): superior to that of the compound BMS-202

Cc1c(-c2ccc3c(c2)CN(CCC(=O)O)C3=O)cccc1-c1ccccc1F [I-A-5, 3-(5-(2'-Fluoro-2-methyl-[1,1'-biphenyl]-3-yl)-1-oxoisoindolin-2-yl)propanoic acid]
IC50 (hPD-1/hPD-L1): > 1000 nM

Cc1c(-c2ccc3c(n2)CCN(CC(=O)O)C3)cccc1-c1ccccc1F [I-B-2, 2-(2-(2'-Fluoro-2-methyl-[1,1'-biphenyl]-3-yl)-7,8-dihydro-1,6-naphthyridin-6(5H)-yl)acetic acid]
IC50 (hPD-1/hPD-L1): 19 nM
inhibitory activity of PD-1/PD-L1 protein-protein interaction compared with BMS-202 (hPD-1/hPD-L1): superior to that of the compound BMS-202

Cc1ccccc1-c1cccc(COc2ccc3c(n2)CCN(CCO)C3)c1C [I-D-15, 2-(2-((2,2'-dimethyl-[1,1'-biphenyl]-3-yl)methoxy)-7,8-dihydro-1,6-naphthyridin-6(5H)-yl)ethan-1-ol]
IC50 (hPD-1/hPD-L1): 70 to 1000 nM

OCCN1CCc2nc(OCc3cccc(-c4ccccc4Cl)c3F)ccc2C1 [I-D-24, 2-(2-((2'-chloro-2-fluoro-[1,1'-biphenyl]-3-yl)methoxy)-7,8-dihydro-1,6-naphthyridin-6(5H)-yl)ethan-1-ol]
MTD [1]: ≥ 2000 mg/kg
IC50 (hPD-1/hPD-L1): 70 to 1000 nM

Cc1c(COc2ccc3c(n2)CCN(CCO)C3)cccc1-c1ccccc1Cl [I-D-16, 2-(2-((2'-chloro-2-methyl-[1,1'-biphenyl]-3-yl)methoxy)-7,8-dihydro-1,6-naphthyridin-6(5H)-yl)ethan-1-ol]
IC50 (hPD-1/hPD-L1): 70 to 1000 nM

Cc1c(-c2ccc3c(c2)CN(CCO)C3=O)cccc1-c1ccccc1F [I-A-7, 5-(2'-Fluoro-2-methyl-[1,1'-biphenyl]-3-yl)-2-(2-hydroxyethyl)isoindo 1-1-one]
IC50 (hPD-1/hPD-L1): 70 to 1000 nM

Cc1c(COc2ccc3c(n2)N(C)CN(CC(=O)O)C3)cccc1-c1cccc(OCCCN2CC[C@@H](O)C2)c1C [I-E-4, (R)-2-(7-((3'-(3-(3-hydroxypyrrolidin-1-yl)propoxy)-2,2'-dimethyl-[1,1'-biphenyl]-3-yl)methoxy)-1-methyl-1,4-dihydropyrido[2,3-d]pyrimidin-3(2H)-yl)acetic acid]
IC50 (hPD-1/hPD-L1): 58.5 nM
inhibitory activity of PD-1/PD-L1 protein-protein interaction compared with BMS-202 (hPD-1/hPD-L1): superior to that of the compound BMS-202

OCCN1CCc2nc(OCc3cccc(-c4ccccc4)c3F)ccc2C1 [I-D-25, 2-(2-((2-fluoro-[1,1'-biphenyl]-3-yl)methoxy)-7,8-dihydro-1,6-naphthyridin-6(5H)-yl)ethan-1-ol]
IC50 (hPD-1/hPD-L1): 70 to 1000 nM

O=CCN1CCc2nc(OCc3cccc(-c4ccccc4F)c3Cl)ccc2C1 [I-D-28, 2-(2-((2-chloro-2'-fluoro-[1,1'-biphenyl]-3-yl)methoxy)-7,8-dihydro-1,6-naphthyridin-6(5H)-yl)acetaldehyde]
IC50 (hPD-1/hPD-L1): 24.2 nM
inhibitory activity of PD-1/PD-L1 protein-protein interaction compared with BMS-202 (hPD-1/hPD-L1): superior to that of the compound BMS-202

OCCN1CCc2nc(OCc3cccc(-c4ccccc4F)c3F)ccc2C1 [I-D-22, 2-(2-((2,2'-difluoro-[1,1'-biphenyl]-3-yl)methoxy)-7,8-dihydro-1,6-naphthyridin-6(5H)-yl)ethan-1-ol]
IC50 (hPD-1/hPD-L1): 10.5 nM
inhibitory activity of PD-1/PD-L1 protein-protein interaction compared with BMS-202 (hPD-1/hPD-L1): superior to that of the compound BMS-202
